Experimental data published in ChEMBL document CHEMBL3046554, “Investigating the mode of action of sulfoxaflor: a fourth-generation neonicotinoid” (Pest Manag Sci, 2013).
Values after ≈ are worked out from the molar mass of the structure shown. Active and inactive are the calls of the source. No cut-off for these calls is given here.

Experiments:
Myzus persicae [1] = test: Displacement of [3H]-methyl-SFX from nAChR in Myzus persicae (green peach aphid) 4106A membrane at 1 ppm after 70 min
Myzus persicae [2] = test: Insecticidal activity against neonicotinoid-resistant Myzus persicae FRC-P (green peach aphid) fed on compound treated chinese cabbage discs after 72 hr; type: functional; conditions: in Brassica rapa
Myzus persicae [3] = test: whole plant or invertebrate; type: functional; conditions: 4106A, in Brassica rapa, 72 h
Description: Insecticidal activity against Myzus persicae 4106A (green peach aphid) fed on compound treated chinese cabbage discs after 72 hr

Myzus persicae [4] = test: Ratio of Ki for [3H]IMD displacement to [3H]-methyl-SFX displacement from nAChR in Myzus persicae 4106A (green peach aphid) membrane; conditions: tested as the 3H-labelled form
Myzus persicae [5] = test: Binding affinity to nAChR in neonicotinoid-resistant Myzus persicae FRC-P (green peach aphid) membrane at 0.05 to 16 nM after 70 min; conditions: tested as the 3H-labelled form

SMILES | LC50 (Myzus persicae [2]) | LC50 (Myzus persicae [3]) | further results
CNC(=O)c1cc(Cl)cc(C)c1NC(=O)c1cc(Br)nn1-c1ncccc1Cl |  |  | Activity (Myzus persicae [1]): 8%
CN1COCN(Cc2cnc(Cl)s2)/C1=N\[N+](=O)[O-] [THIAMETHOXAM] | 108 µg/mL (≈ 370 µM) | 0.5 µg/mL (≈ 1.71 µM) | 
CCN(Cc1ccc(Cl)nc1)/C(=C/[N+](=O)[O-])NC [NITENPYRAM] | 236 µg/mL (≈ 872 µM) | 1.3 µg/mL (≈ 4.8 µM) | 
CCC(C)c1cc([N+](=O)[O-])cc([N+](=O)[O-])c1O (stereo unspecified) |  |  | Activity (Myzus persicae [1]): 13%
CCS(=O)(=NC#N)C(C)(C)c1ccc(C(F)(F)F)nc1 (stereo unspecified) |  | 20.5 µg/mL (≈ 67.1 µM) | 
CC(c1ccc(C(F)(F)F)nc1)S(C)(=O)=N[N+](=O)[O-] (stereo unspecified) |  | > 100 µg/mL | 
CON=CCCC(F)(F)c1ccc(C(C)S(C)(=O)=NC#N)cn1 (stereo unspecified) |  | > 100 µg/mL | 
N#Cc1nn(-c2c(Cl)cc(C(F)(F)F)cc2Cl)c(N)c1[S+]([O-])C(F)(F)F (stereo unspecified) |  |  | Activity (Myzus persicae [1]): 30%
CN/C(=N\[N+](=O)[O-])NCc1cnc(Cl)s1 [CLOTHIANIDINE] | 904 µg/mL (≈ 3620 µM) | 0.3 µg/mL (≈ 1.2 µM) | 
CS(=O)(Cc1cnc(Cl)s1)=NC#N (stereo unspecified) |  | 14.4 µg/mL (≈ 61.2 µM) | 
CS(=O)(Cc1ccc(C(F)(F)Cl)nc1)=NC#N (stereo unspecified) |  | 9.6 µg/mL (≈ 34.3 µM) | 
C=CCC(F)(F)c1ccc(C(C)S(C)(=O)=NC#N)cn1 (stereo unspecified) |  | > 100 µg/mL | 
CC1(C)[C@H](/C=C(\Cl)C(F)(F)F)[C@@H]1C(=O)O[C@@H](C#N)c1cccc(Oc2ccccc2)c1 (relative stereo) |  |  | Activity (Myzus persicae [1]): 3%
CC[C@H](C)[C@H]1O[C@]2(C=C[C@@H]1C)C[C@@H]1C[C@@H](C/C=C(\C)[C@@H](O[C@H]3C[C@H](OC)[C@@H](O[C@H]4C[C@H](OC)[C@@H](O)[C@H](C)O4)[C@H](C)O3)[C@@H](C)/C=C/C=C3\CO[C@@H]4[C@H](O)C(C)=C[C@@H](C(=O)O1)[C@]34O)O2.CO[C@H]1C[C@H](O[C@H]2[C@H](C)O[C@@H](O[C@@H]3/C(C)=C/C[C@@H]4C[C@@H](C[C@]5(C=C[C@H](C)[C@@H](C(C)C)O5)O4)OC(=O)[C@@H]4C=C(C)[C@@H](O)[C@H]5OC/C(=C\C=C\[C@@H]3C)[C@]54O)C[C@@H]2OC)O[C@@H](C)[C@@H]1O |  |  | Activity (Myzus persicae [1]): -6%
CC(C)(c1ccc(C(F)(F)F)nc1)S(C)(=O)=NC#N (stereo unspecified) |  | 0.45 µg/mL (≈ 1.54 µM) | Ratio Ki (Myzus persicae [4]): 100; Activity (Myzus persicae [5]): inactive
CCN(CC)c1nc(C)cc(OP(=S)(OC)OC)n1 |  |  | Activity (Myzus persicae [1]): 2%
CC(c1ccc(C(F)(F)F)nc1)S(C)(=O)=NC#N (stereo unspecified) [SULFOXAFLOR] | 4.3 µg/mL (≈ 15.5 µM) | 0.08 µg/mL (≈ 0.289 µM) | 
N#C/N=C1\SCCN1Cc1ccc(Cl)nc1 [THIACLOPRID] | > 1000 µg/mL | 0.4 µg/mL (≈ 1.58 µM) | 
CC(c1ccc(Cl)nc1)S(C)(=O)=NC#N (stereo unspecified) |  | 1.4 µg/mL (≈ 5.74 µM) | 
CNC(=O)O/N=C/C(C)(C)SC |  |  | Activity (Myzus persicae [1]): 0%
C/C(=N\C#N)N(C)Cc1ccc(Cl)nc1 [ACETAMIPRID] | 49.3 µg/mL (≈ 221 µM) | 0.6 µg/mL (≈ 2.69 µM) | 
C[C@@](F)(c1ccc(C(F)(F)F)nc1)S(C)(=O)=NC#N (stereo partly specified) |  | 4.64 µg/mL (≈ 15.7 µM) | 
O=[N+]([O-])/N=C1\NCCN1Cc1ccc(Cl)nc1 [IMIDACLOPRID] | 108 µg/mL (≈ 422 µM) | 0.1 µg/mL (≈ 0.391 µM) | 
CC(c1ccc(C(F)(F)F)nc1)S(C)(=O)=NC(N)=O (stereo unspecified) |  | > 100 µg/mL | 
CN/C(=N/CC1CCOC1)N[N+](=O)[O-] (stereo unspecified) [DINOTEFURAN] | 538 µg/mL (≈ 2660 µM) | 10 µg/mL (≈ 49.5 µM) | 
Cc1nc(C(F)(F)F)ccc1CS(C)(=O)=NC#N (stereo unspecified) |  | > 100 µg/mL | 
